From patent US8470829B2 (priority 2004, dated 2013)
Where two headings read alike, the source gives them in different places.

Columns and labels:
human androgen receptor [1] = target: T1, human androgen receptor (Homo sapiens, UniProt P10275); test: Investigation of antagonist effect on androgen receptor (reporter gene assay, 11A11B2 cells, with DHT); format: cell-based
T1 construct: expressed in transfected cells
T1 sequence (P10275 1-920): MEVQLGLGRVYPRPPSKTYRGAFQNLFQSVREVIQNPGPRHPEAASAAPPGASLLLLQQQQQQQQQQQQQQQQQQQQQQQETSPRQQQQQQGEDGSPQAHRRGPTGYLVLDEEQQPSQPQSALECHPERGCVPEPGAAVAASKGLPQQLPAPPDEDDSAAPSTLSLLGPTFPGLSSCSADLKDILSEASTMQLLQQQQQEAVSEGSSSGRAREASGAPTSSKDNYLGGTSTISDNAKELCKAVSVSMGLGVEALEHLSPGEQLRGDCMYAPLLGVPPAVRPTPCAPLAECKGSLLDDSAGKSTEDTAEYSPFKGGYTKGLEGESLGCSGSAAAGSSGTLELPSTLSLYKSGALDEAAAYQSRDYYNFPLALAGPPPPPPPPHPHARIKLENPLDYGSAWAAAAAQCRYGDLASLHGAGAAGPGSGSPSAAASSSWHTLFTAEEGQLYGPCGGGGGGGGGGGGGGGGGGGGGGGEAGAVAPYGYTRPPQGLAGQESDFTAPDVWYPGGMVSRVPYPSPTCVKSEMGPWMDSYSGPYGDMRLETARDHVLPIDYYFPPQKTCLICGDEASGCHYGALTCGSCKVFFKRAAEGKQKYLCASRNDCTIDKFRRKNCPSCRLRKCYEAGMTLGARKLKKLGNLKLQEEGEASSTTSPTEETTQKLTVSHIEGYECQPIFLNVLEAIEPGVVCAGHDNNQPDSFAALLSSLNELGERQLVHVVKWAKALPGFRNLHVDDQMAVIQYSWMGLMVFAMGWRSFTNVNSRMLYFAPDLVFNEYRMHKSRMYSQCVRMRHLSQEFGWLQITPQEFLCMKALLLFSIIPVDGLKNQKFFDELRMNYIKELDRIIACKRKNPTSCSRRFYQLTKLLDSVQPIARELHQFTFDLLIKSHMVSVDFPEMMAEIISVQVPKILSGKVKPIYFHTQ
Description: (§1) HeLa cells (purchased from Dai-Nippon Seiyaku K. K.) were cultured overnight in Dulbecco's Modified Eagle Medium containing no phenol red, but containing 3% charcoal-treated fetal bovine serum (hereafter referred to as DCC-FBS) (this medium is hereafter referred to as phenol-red-free DMEM). An MMTV-Luc-Hyg vector (reporter plasmid with mouse mammary tumor virus long terminal repeat, containing an androgen response element and a hygromycin resistance gene: a vector obtained by substituting a chloramphenicol acetyl transferease gene of a GM-CAT vector (A.T.C.C No. 67282) purchased from the A.T.C.C. with the firefly luciferase gene, and inserting a hygromycin resistance gene as a drug resistant gene), and pSG5-hAR-neo (human androgen receptor expression vector: a vector having an androgen receptor gene under the control of the SV40 promoter, and having a neomycin resistance gene inserted as a drug resistance gene) were transfected into the HeLa cells using an FuGENE™ 6 Transfection Reagent (obtained from Roche).
(§2) The clone cells thus obtained (11A11B2 cells) were maintained and propagated using DMEM containing 400 μg/mL neomycin, 200 μg/mL hygromycin and 10% FBS, and were propagated using phenol-red-free DMEM containing 10% DCC-FBS three to four days prior to the performance of an androgen receptor reporter gene assay.
The 11A11B2 cells were inoculated in a white clear-bottomed 96-well microplate (COSTAR) so that the cell concentration was 1.0×10^4/well, and were cultured overnight. The assay medium containing DHT was added so that the final concentration of DHT was 0.1 nmol/L, and samples of the assay medium containing the compounds of the Examples or compounds of the Comparative Examples were added so that the final concentrations of the compounds of the Examples or compounds of the Comparative Examples were 1, 10, 100, 1,000 and 10,000 nmol/L, respectively. After culturing for 48, hours, the transcription activity values were measured. The transcription activity was measured using a Bright-Glo™ Luciferase Assay System (Promega).
(§3) The transcription activity rates of the compounds of the Examples were calculated from the transcription activity measured by the abovementioned method, with the transcription activity value obtained at 0.1 nmol/L DHT taken as 100%, and the transcription activity value in the case of the assay, medium alone taken as 0%.

human androgen receptor [2] = target: T1, human androgen receptor; test: Measurement of agonist effect on androgen receptor (reporter gene assay, 11A11B2 cells); format: cell-based; settings: compound concentration showing a transcription activity of 5% (0.1 nmol/L DHT = 100%, assay medium alone = 0%), 48 hours
Description: as §1, §2
The 11A11B2 cells were inoculated in a white clear-bottomed 96-well microplate (COSTAR) so that the cell concentration was 1.0×10^4/well, and were cultured overnight using phenol-red-free DMEM containing 3% DCC-FBS (hereafter referred to as the assay medium). Samples of the assay medium containing the compounds of the Examples and compounds of the Comparative Examples were added so that the final concentrations of the compounds of the Examples and compounds of the Comparative Examples were 1, 10, 100, 1,000 and 10,000 nmol/L), and the cells were cultured for 48 hours, after which the transcription activity value was measured. The transcription activity was measured using a Bright-Glo™ Luciferase Assay System (Promega).
as §3, with “assay” for “assay,”, “0%. The compound concentration showing a transcription activity of 5% (EC5 value) was calculated from a linear equation for two points on either side of 5%.” for “0%.”

[3] = with 0.1 nmol/L DHT, transcription activity rate of Test Example 1 subtracted, 11A11B2 cells, 48 hours, read-out: IC50

| Compound | IC50 (human androgen receptor [1]) [nM] | EC5 (human androgen receptor [2]) [µM] | IC50 (human androgen receptor [1]; [3]) [nM] |
| --- | --- | --- | --- |
| CCCNC(=O)N1CCC(N2C(=S)N(c3ccc(C#N)c(Cl)c3)C(=O)C2(C)C)CC1 [Example 41, 4-[3-(1-n-propylaminocarbonylpiperidin-4-yl)-4,4-dimethyl-5-oxo-2-thioxoimidazolidin-1-yl]-2-chlorobenzonitrile] | 500 | >10 | – |
| CN1CCN(CCOC(=O)Nc2cc(N3C(=O)N(c4ccc(C#N)c(C(F)(F)F)c4)C(=O)C3(C)C)ccc2Cl)CC1 [Example 29, {2-chloro-5-[3-(4-cyano-3-trifluoromethylphenyl)-5,5-dimethyl-2,4-dioxoimidazolidin-1-yl]phenyl}-carbamic acid 2-(4-methylpiperazin-1-yl)ethyl ester] | – | >10 | 500 |
| CC(C)OC(=O)Nc1cc(N2C(=O)N(c3ccc(C#N)c(C(F)(F)F)c3)C(=O)C2(C)C)ccc1Cl [Example 23, 4-[3-(3-isopropoxycarbonylamino-4-chlorophenyl)-4,4-dimethyl-2,5-dioxoimidazolidin-1-yl]-2-trifluoromethylbenzonitrile] | – | >10 | 500 |
| CC1(C)C(=O)N(c2ccc(C#N)c(Cl)c2)C(=S)N1c1ccc2sc(NC(=O)OCC(O)CO)nc2c1 (stereo not drawn) [Example 65, {5-[3-(3-chloro-4-cyanophenyl)-5,5-dimethyl-4-oxo-2-thioxoimidazolidin-1-yl]benzothiazol-2-yl}carbamic acid 2,3-dihydroxypropyl ester] | – | >10 | 200 |
| CCS(=O)(=O)N1CCC(N2C(=S)N(c3ccc(C#N)c(Cl)c3)C(=O)C2(C)C)CC1 [Example 9, 4-[3-(1-ethanesulfonylpiperidin-4-yl)-4,4-dimethyl-5-oxo-2-thioxoimidazolidin-1-yl]-2-chlorobenzonitrile] | 300 | >10 | – |
| CC1(C)C(=O)N(c2ccc(C#N)c(C(F)(F)F)c2)C(=S)N1c1ccc2sc(NC(N)=O)nc2c1 [Example 18, {5-[3-(4-cyano-3-trifluoromethylphenyl)-5,5-dimethyl-4-oxo-2-thioxoimidazolidin-1-yl]-benzothiazol-2-yl}urea] | 100 | >10 | – |
| CN(C)CCOC(=O)Nc1cc(N2C(=O)N(c3ccc(C#N)c(C(F)(F)F)c3)C(=O)C2(C)C)ccc1Cl [Example 28, {2-chloro-5-[3-(4-cyano-3-trifluoromethylphenyl)-5,5-dimethyl-2,4-dioxoimidazolidin-1-yl]phenyl}-carbamic acid 2-dimethylaminoethyl ester] | – | >10 | 500 |
| CCOC(=O)N1CCC(N2C(=S)N(c3ccc(C#N)c(Cl)c3)C(=O)C2(C)C)CC1 [Example 2, 4-[3-(1-ethoxycarbonylpiperidin-4-yl)-4,4-dimethyl-5-oxo-2-thioxoimidazolidin-1-yl]-2-chlorobenzonitrile] | 80 | 8 | – |
| CC1(C)C(=O)N(c2ccc(C#N)c(Cl)c2)C(=S)N1c1ccc(Cl)c(NC(=O)OCCO)c1 [Example 47, {2-chloro-5-[3-(4-cyano-3-chlorophenyl)-5,5-dimethyl-4-oxo-2-thioxoimidazolidin-1-yl]phenyl}carbamic acid 2-hydroxyethyl ester] | 300 | >10 | – |
| COc1cc(N2C(=O)C(C)(C)N(c3ccc(Cl)c(NC(=O)OCCO)c3)C2=S)ccc1C#N [Example 48, {2-chloro-5-[3-(4-cyano-3-methoxyphenyl)-5,5-dimethyl-4-oxo-2-thioxoimidazolidin-1-yl]phenyl}-carbamic acid 2-hydroxyethyl ester] | – | >10 | 500 |
| CC1(C)C(=O)N(c2ccc(C#N)c(C(F)(F)F)c2)C(=S)N1c1ccc(NC(=O)OCCO)nc1 [Example 60, {5-[3-(4-cyano-3-trifluoromethylphenyl)-5,5-dimethyl-4-oxo-2-thioxoimidazolidin-1-yl]pyridin-2-yl}carbamic acid 2-hydroxyethyl ester] | – | >10 | 300 |
| CC1(C)C(=O)N(c2ccc(C#N)c(Cl)c2)C(=S)N1c1ccc2sc(NC(N)=O)nc2c1 [Example 20, {5-[3-(4-cyano-3-chlorophenyl)-5,5-dimethyl-4-oxo-2-thioxoimidazolidin-1-yl]-benzothiazol-2-yl}urea] | 100 | >10 | – |
| CCC(=O)N1CCC(N2C(=O)N(c3ccc(C#N)c(Cl)c3C)C(=O)C2(C)C)CC1 [Example 12, 4-[3-(1-propionylpiperidin-4-yl)-4,4-dimethyl-2,5-dioxoimidazolidin-1-yl]-2-chloro-3-methylbenzonitrile] | – | >10 | 700 |
| CN(C)CCOC(=O)N1CCC(N2C(=S)N(c3ccc(C#N)c(C(F)(F)F)c3)C(=O)C2(C)C)CC1 [Example 36] | 500 | >10 | – |
| COc1cc(N2C(=O)C(C)(C)N(c3ccc(Cl)c(NC(=O)OCCN(C)C)c3)C2=S)ccc1C#N [Example 54, {2-chloro-5-[3-(4-cyano-3-methoxyphenyl)-5,5-dimethyl-4-oxo-2-thioxoimidazolidin-1-yl]phenyl}-carbamic acid 2-dimethylaminoethyl ester] | – | >10 | 500 |
| CCC(=O)N1CCC(N2C(=S)N(c3ccc(C#N)c(Cl)c3)C(=O)C2(C)C)CC1 [Example 7, 4-[3-(1-propionylpiperidin-4-yl)-4,4-dimethyl-5-oxo-2-thioxoimidazolidin-1-yl]-2-chlorobenzonitrile] | 300 | >10 | – |
| CN(C)CCOC(=O)Nc1cc(N2C(=S)N(c3ccc(C#N)c(C(F)(F)F)c3)C(=O)C2(C)C)ccc1Cl [Example 52, {2-chloro-5-[3-(4-cyano-3-trifluoromethylphenyl)-5,5-dimethyl-4-oxo-2-thioxoimidazolidin-1-yl]phenyl}-carbamic acid 2-dimethylaminoethyl ester] | 300 | >10 | – |
| CC1(C)C(=O)N(c2ccc(C#N)c(C(F)(F)F)c2)C(=S)N1c1ccc(S(N)(=O)=O)cc1 [Example 56, 4-[3-(4-cyano-3-trifluoromethylphenyl)-5,5-dimethyl-4-oxo-2-thioxoimidazolidin-1-yl]benzenesulfonamide] | – | >10 | 400 |
